Literature values as cited in US20190224118A1, “ORAL GASTRORETENTIVE FORMULATIONS AND USES THEREOF” (INTEC PHARMA LTD., priority 2016, published 2019).

Structure (SMILES) | plasma levels of active 11-hydroxy metabolite, oral administration versus smoking (oral versus smoking) | number of metabolites identified in urine (urine)
CCCCCc1cc(O)c2c(c1)OC(C)(C)[C@@H]1CCC(C)=C[C@@H]21 [Δ9-THC, Δ-9-tetrahydrocannabinol] | about three | –
C=C(C)[C@@H]1CCC(C)=C[C@H]1c1c(O)cc(CCCCC)cc1O [CBD, cannabidiol] | – | more than 33
